The record followed here is publication PMC12040169 (PLOS Biology, 2025).

One data set in a line: in vitro. Particulars: human, hela cells, % viability.
With `Cc1ccc(S(=O)(=O)N(CC(=O)Nc2ccc3c(c2)OCCO3)Cc2ccccc2F)cc1` [CBK265157], the viability at 28.5 h, 10 µM was 83.3%.
In the case of `O=C(NCCCO)Nc1ccc2nc(-c3ccco3)c(-c3ccco3)nc2c1` [CBK265161], the viability at 28.5 h, 10 µM was 92.4%.
For the compound `CCOC(=O)C(C)N1C(=O)S/C(=C/c2cc(Cl)c(OCC(=O)O)c(Br)c2)C1=O` (centres unmarked) [CBK265163], the viability at 28.5 h, 10 µM worked out at 99.9%.
`Cc1cccc(CN(CC(=O)Nc2ccc(F)cc2F)S(=O)(=O)c2ccc(Cl)cc2)c1` [CBK265164]: the viability at 28.5 h, 10 µM worked out at 84.9%.
For `CCN(CC)CCN1C(=O)C(O)=C(C(=O)c2ccc(Cl)cc2)C1c1cccc(Br)c1` (centres unmarked) [CBK265165], the viability at 28.5 h, 10 µM was 112%.
Same read-out and setting: with `CCCCc1cc(=O)oc2cc(OC(C)C(=O)O)c(Cl)cc12` (centres unmarked) [CBK265166] the figure was 95.7%; with `C/C(=C1/SC(=S)N(c2cccc(C(=O)O)c2)C1=O)c1cccc([N+](=O)[O-])c1` [CBK265168], 100%; with `CC1CCN(S(=O)(=O)c2ccc(Cl)c(C(=O)Nc3ccc(C(=O)O)cc3)c2)CC1` [CBK265170], 111%.
For the compound `COc1ccc(S(=O)(=O)Nc2ccc(C)cc2)cc1C(=O)Nc1ccc(C)cc1` [CBK265172], the viability at 28.5 h, 10 µM is 94.7%.
In the case of `COc1ccc([N+](=O)[O-])cc1COc1ccc2c(C(F)(F)F)cc(=O)oc2c1` [CBK265173], the viability at 28.5 h, 10 µM came out at 96.4%.
In the case of `NC(=O)C1CCN(C2=NC(=O)/C(=C/c3cn(-c4ccccc4)nc3-c3ccc(F)cc3)S2)CC1` [CBK265175], the viability at 28.5 h, 10 µM was determined as 106%.
Still for that read-out and setting: with `COc1ccccc1Oc1ccc(S(=O)(=O)N2CCOCC2)cc1S(=O)(=O)N1CCOCC1` [CBK265176] the figure was 97.2%; with `Cc1ccc(C(=O)C(OC(=O)c2ccc(-c3nnc(-c4ccccc4)o3)cc2)c2ccccc2)cc1` (centres unmarked) [CBK265177], 82.7%; with `COc1ccc(-c2nn(-c3ccccc3)cc2/C=C2\SC(N3CCC(C(N)=O)CC3)=NC2=O)cc1` [CBK265178], 105%.
For the compound `NC(=O)C1CCN(C2=NC(=O)/C(=C/c3cn(-c4ccccc4)nc3-c3cccs3)S2)CC1` [CBK265179], the viability at 28.5 h, 10 µM worked out at 97.3%.
With `CCc1cc(=O)oc2cc(OCC(=O)O)c(Cl)cc12` [CBK265182], the viability at 28.5 h, 10 µM was found to be 93.9%.
The same measure, in the same setting: with `O=C(O)c1cccc(NC(=O)c2ccc(S(=O)(=O)N3CCCCC3)cc2)c1` [CBK265185] the figure was 86.1%.
As to `O=C(O)CCC(=O)Nc1ccc(Br)c2cccnc12` [CBK265186], the viability at 28.5 h, 10 µM stood at 105%.
Turning to `O=C(O)CSc1nc2ccc([N+](=O)[O-])cc2[nH]1` [CBK265192], the viability at 28.5 h, 10 µM was determined as 86.9%.
In the case of `NS(=O)(=O)c1cc(C(=O)OCCNC(=O)c2ccccc2)c(Cl)cc1Cl` [CBK265193], the viability at 28.5 h, 10 µM came out at 88.9%.
As for `Fc1ccccc1CN1CCN(Cc2ccccn2)CC1` [CBK265194G], the viability at 28.5 h, 10 µM was determined as 100%.
In the case of `O=C1OC(c2ccco2)=N/C1=C/Nc1ccc(C(=O)O)cc1` [CBK265195], the viability at 28.5 h, 10 µM was 104%.
Same read-out and setting: with `CN1CCN(C(=O)c2cnn(-c3ccccc3)c2NC(=O)c2ccc(F)cc2)CC1` [CBK265198] the figure was 88.3%; with `COc1ccc(Cl)cc1Nc1nc(N)nc(CC(=O)CSc2ccc(C)cc2)n1` [CBK265200], 90.2%.
The same measure, in the same setting: the result for `CCOc1ccc2nc(SCc3nc(N)nc(Nc4cccc(Cl)c4C)n3)sc2c1` [CBK265202] reads 83.1%; that for `O=C(CSc1nnc(-c2cccnc2)n1-c1ccccc1)Nc1ccc(Br)cc1` [CBK265203], 100%.
Still for that read-out and setting: with `CCOc1ccc2[nH]c(=O)c(/C=C3\SC(=S)N(CCC(=O)O)C3=O)cc2c1` [CBK265213] the figure was 89.7%; with `Cc1ccc(OCC(=O)NC(=S)Nc2cc(-c3nc4ncccc4o3)ccc2Cl)cc1` [CBK265214], 103%; with `O=C(CN(c1ccc(F)cc1)S(=O)(=O)c1ccccc1)Nc1ccc2c(c1)OCCO2` [CBK265215], 94.8%.
In the case of `Cn1c2c(c(=O)n(C)c1=O)CN(CCN1CCNCC1)CN2` [CBK265218], the viability at 28.5 h, 10 µM came to 104%.
On the same count and under the same terms, with `COc1ccc(C2N(Cc3ccccc3)CCN2Cc2ccccc2)c(OC)c1OC` [CBK265220] the figure was 104%.
With `CCc1n[nH]c(SCc2ccc(Br)cc2)n1` [CBK265221], the viability at 28.5 h, 10 µM was determined as 90.9%.
For the compound `S=c1n(CN2CCC3(CC2)OCCO3)nc(-c2ccccc2Cl)n1-c1ccccc1` [CBK265222], the viability at 28.5 h, 10 µM came out at 88.4%.
On the same count and under the same terms, the result for `Nc1cc(O)nc(SCCN2CCN(c3ccc(C(F)(F)F)cc3[N+](=O)[O-])CC2)n1` [CBK265225] reads 88.5%; that for `O=C(NCc1ccccn1)c1cncc(Br)c1` [CBK265226], 88.1%.
For the compound `CC(C)(C)c1ccc(-c2nc(Nc3cccc(C(=O)O)c3)c3ccccc3n2)cc1` [CBK265229C], the viability at 28.5 h, 10 µM amounted to 96.6%.
For `CN1CCN(C(=S)SCc2nc(N)nc(Nc3ccc(F)cc3)n2)CC1` [CBK265230], the viability at 28.5 h, 10 µM came to 81.4%.
Take `Cc1ccc(S(=O)(=O)NCc2c(-c3ccccc3)c3cc(Br)ccc3[nH]c2=O)cc1` [CBK265231]: the viability at 28.5 h, 10 µM stood at 98.3%.
Take `COc1ccc(Nc2nc(N)nc(CSC(=S)N3CCN(C)CC3)n2)cc1` [CBK265232]: the viability at 28.5 h, 10 µM came to 90.8%.
For `COc1cccc(CCNC2CC(=O)N(c3ccc(NC(C)=O)cc3)C2=O)c1` (centres unmarked) [CBK265233], the viability at 28.5 h, 10 µM is 109%.
Consider `Cc1ccc(S(=O)(=O)NC2=NCN(CCOC(=O)c3ccc([N+](=O)[O-])cc3)CN2)cc1` [CBK265235], for which the viability at 28.5 h, 10 µM was determined as 92.8%.
On to `CC(=O)Nc1ccc(N2C(=O)CC(NCCCN3CCOCC3)C2=O)cc1` (centres unmarked) [CBK265236], for which the viability at 28.5 h, 10 µM was found to be 115%.
In the case of `CC(CN1CCCCC1)OC(=O)C(c1ccccc1)c1ccccc1` (centres unmarked) [CBK265237C], the viability at 28.5 h, 10 µM came out at 104%.
Regarding `Cc1ccc(CSCc2nc3ccccc3[nH]2)cc1` [CBK265238], the viability at 28.5 h, 10 µM came to 90%.
Same read-out and setting: with `O=C(/C=C/c1ccc2c(c1)OCO2)NCCSCc1c(F)cccc1Cl` [CBK265239] the figure was 90.3%; with `Cc1ccc2nc3c(cc(C(=O)NC4CCCC4)c(=N)n3Cc3ccco3)c(=O)n2c1` [CBK265242], 81%; with `Cc1ccc(/C=N/n2c(S)nnc2COc2ccccc2)o1` [CBK265244], 110%.
For `Cc1ccc(N(CC(=O)Nc2ccccc2C(N)=O)S(=O)(=O)c2ccccc2)cc1C` [CBK265246], the viability at 28.5 h, 10 µM worked out at 94.4%.
Take `O=C(O)C(CCCCN1C(=O)c2ccccc2C1=O)N1C(=O)c2ccccc2C1=O` (centres unmarked) [CBK265250]: the viability at 28.5 h, 10 µM was 91.7%.
In the case of `CC1=NN(c2ccccc2)C(=O)/C1=C\c1cn(CCC(=O)O)nc1-c1cc2ccccc2o1` [CBK265252], the viability at 28.5 h, 10 µM came out at 88.1%.
With `COc1ccccc1NC(=O)CN(c1ccc(Br)cc1)S(C)(=O)=O` [CBK265254], the viability at 28.5 h, 10 µM is 99.3%.
Take `O=C(CC1(O)C(=O)N(Cc2ccccc2Cl)c2ccccc21)c1cc2ccccc2oc1=O` (centres unmarked) [CBK265255]: the viability at 28.5 h, 10 µM was 96.2%.
`COc1ccc(/C=C(/C(=O)NCc2ccc(Cl)cc2Cl)c2ccccc2)cc1` [CBK265256]: the viability at 28.5 h, 10 µM came out at 89.9%.
On to `O=C(O)/C=C\c1cn(-c2ccccc2)nc1-c1cc2ccccc2o1` [CBK265257], for which the viability at 28.5 h, 10 µM was determined as 92.7%.
Still for that read-out and setting: the result for `COc1ccc(N(CC(=O)N2CCN(Cc3ccc4c(c3)OCO4)CC2)S(C)(=O)=O)cc1Cl` [CBK265258] reads 84.3%.
The same measure, in the same setting: with `COC(=O)CN1C(=O)S/C(=C/c2ccc(OCc3cccc(C(=O)O)c3)c(Cl)c2)C1=O` [CBK265262] the figure was 90.2%.
On to `NC(=O)c1ccccc1NC(=O)CN(c1cccc(Br)c1)S(=O)(=O)c1ccccc1` [CBK265263], for which the viability at 28.5 h, 10 µM was 92.1%.
Consider `OCCCNC(=S)Nc1ccc(Cl)cc1Cl` [CBK265264], for which the viability at 28.5 h, 10 µM worked out at 96.6%.
The same measure, in the same setting: with `O=C(O)C1CCN(S(=O)(=O)c2ccccc2[N+](=O)[O-])CC1` [CBK265267] the figure was 98.6%; with `Sc1nnc(COc2ccccc2)n1/N=C/c1ccc(-c2ccccc2)cc1` [CBK265269], 117%.
As for `O=c1c2c(n3c(S)nnc3n1Cc1ccco1)-c1ccccc1CC21CCCCC1` [CBK265271], the viability at 28.5 h, 10 µM was determined as 94.7%.
As for `Sc1nnc(-c2ccncc2)n1/N=C/c1c[nH]c2ccccc12` [CBK265272], the viability at 28.5 h, 10 µM amounted to 85.8%.
Same read-out and setting: the result for `O=C(/C=C\c1cn(-c2ccccc2)nc1-c1cccc([N+](=O)[O-])c1)n1nnc2ccccc21` [CBK265273] reads 104%.
For `Cc1ccc(NC(=O)c2cc(N3C(=O)c4ccc(C(=O)O)cc4C3=O)ccc2N2CCCCC2)cc1` [CBK265274], the viability at 28.5 h, 10 µM was 99.9%.
For the compound `O=C(CCC(=O)OCN1C(=O)c2ccccc2C1=O)Nc1ccc2ccccc2c1` [CBK265277], the viability at 28.5 h, 10 µM stood at 108%.
For `Sc1nnc(COc2ccccc2)n1/N=C/c1ccccn1` [CBK265279], the viability at 28.5 h, 10 µM stood at 102%.
Same read-out and setting: with `CN1CCN(c2cc(N3CCN(C(=O)c4ccc(F)cc4F)CC3)c([N+](=O)[O-])cc2F)CC1` [CBK265280] the figure was 95.1%.
The same measure, in the same setting: with `COc1cccc(/C=C2/NC(=O)N(Cc3ccc(F)cc3)C2=O)c1OCc1cccc(C(=O)O)c1` [CBK265282] the figure was 89.1%; with `COc1ccc(-c2oc3ncn4nc(COc5ccccc5C)nc4c3c2-c2ccc(OC)cc2)cc1` [CBK265283], 94.8%; with `Cc1cccc(OCc2nc3c4c5c(sc4ncn3n2)CCCCC5)c1C` [CBK265284], 104%.
For `O=C(Oc1ccc2c(c1)C1C=CCC1C(C(=O)O)N2)c1ccc(Cl)cc1Cl` (centres unmarked) [CBK265285], the viability at 28.5 h, 10 µM came out at 94.2%.

The data set is the same for the next values; noted with them: human, hela cells, % viability, bulk resorufin, single well.
For the compound `COc1cc(/C=C2/C(=O)NC(=O)N(c3ccc(C)c(Cl)c3)C2=O)ccc1OC(C)C` [CBK265156], the viability at 28.5 h, 10 µM was found to be 118%.
As to `O=C1NC(=O)C(=CNCCN2CCN(C(=O)c3ccccc3)CC2)C(=O)N1` [CBK265190], the viability at 28.5 h, 10 µM was determined as 90.5%.
For `CCN1C(=O)/C(=C\c2ccc(-c3cccc(C(=O)O)c3C)o2)C(=O)N(c2ccc(Cl)cc2)C1=S` [CBK265270], the viability at 28.5 h, 10 µM stood at 99.9%.

Broadly, the viability is a read-out of living cells in per cent, often relative to untreated cells.
